From PubChem BioAssay AID1963978 (Molecular Pharmacology Branch, DTP, NCI, 2024)

Test system: 616215-338-R-J1-PDC spheroids with HUVEC/MSC, viability
Test: Anticancer human tumor 616215-338-R-J1-PDC patient-derived colon adenocarcinoma cell line growth inhibition [PI3K]
Settings: for IC50: curve of first compound; for viability, T/C: stronger effect = lower value
Procedure, shortened: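 Stroma-containing spheroids: tumor line, pooled-donor HUVEC, hMSC. Treatments: targeted agents with PI3K inhibitors. Dosing: clinically relevant, half-log spacing, 10 microM ceiling without known Cmax. Read-out: cell viability.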

[1] = second compound 0.0316 µM, first compound 0.0316 µM
[2] = second compound 0.0316 µM, first compound 0.1 µM
[3] = second compound 0.0316 µM, first compound 0.316 µM
[4] = second compound 0.0316 µM, first compound 1 µM
[5] = second compound 0.0316 µM, first compound 3.16 µM
[6] = second compound 0.0316 µM, first compound 10 µM
[7] = second compound 0.1 µM, first compound 0.0316 µM
[8] = second compound 0.1 µM, first compound 0.1 µM
[9] = second compound 0.1 µM, first compound 0.316 µM
[10] = second compound 0.1 µM, first compound 1 µM
[11] = second compound 0.1 µM, first compound 3.16 µM
[12] = second compound 0.1 µM, first compound 10 µM
[13] = second compound 0.316 µM, first compound 0.0316 µM
[14] = second compound 0.316 µM, first compound 0.1 µM
[15] = second compound 0.316 µM, first compound 0.316 µM
[16] = second compound 0.316 µM, first compound 1 µM
[17] = second compound 0.316 µM, first compound 3.16 µM
[18] = second compound 0.316 µM, first compound 10 µM
[19] = second compound 1 µM, first compound 0.0316 µM
[20] = second compound 1 µM, first compound 0.1 µM
[21] = second compound 1 µM, first compound 0.316 µM
[22] = second compound 1 µM, first compound 1 µM
[23] = second compound 1 µM, first compound 3.16 µM
[24] = second compound 1 µM, first compound 10 µM
[25] = second compound 3.16 µM, first compound 0.0316 µM
[26] = second compound 3.16 µM, first compound 0.1 µM
[27] = second compound 3.16 µM, first compound 0.316 µM
[28] = second compound 3.16 µM, first compound 1 µM
[29] = second compound 3.16 µM, first compound 3.16 µM
[30] = second compound 3.16 µM, first compound 10 µM
[31] = second compound 10 µM, first compound 0.0316 µM
[32] = second compound 10 µM, first compound 0.1 µM
[33] = second compound 10 µM, first compound 0.316 µM
[34] = second compound 10 µM, first compound 1 µM
[35] = second compound 10 µM, first compound 3.16 µM
[36] = second compound 10 µM, first compound 10 µM
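Note: spheroids exposed to agents for seven days before the viability read.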

C=CC(=O)N1CCN(c2nc(=O)n(-c3c(C)ccnc3C(C)C)c3nc(-c4c(O)cccc4F)c(F)cc23)C(C)C1 (stereo not given) + Cc1nc(NC(=O)N2CCCC2C(N)=O)sc1-c1ccnc(C(C)(C)C(F)(F)F)c1
IC50 (second compound 0.0316 µM): > 10 µM | IC50 (second compound 0.1 µM): > 10 µM | IC50 (second compound 0.316 µM): > 10 µM | IC50 (second compound 1 µM): > 10 µM | IC50 (second compound 3.16 µM): > 10 µM | IC50 (second compound 10 µM): > 10 µM | viability, T/C [1]: 104% | viability, T/C [2]: 92.1% | viability, T/C [3]: 99.2% | viability, T/C [4]: 88.3% | viability, T/C [5]: 113% | viability, T/C [6]: 95.2% | viability, T/C [7]: 100% | viability, T/C [8]: 92.7% | viability, T/C [9]: 91.6% | viability, T/C [10]: 98.8% | viability, T/C [11]: 103% | viability, T/C [12]: 90.3% | viability, T/C [13]: 108% | viability, T/C [14]: 103% | viability, T/C [15]: 111% | viability, T/C [16]: 101% | viability, T/C [17]: 104% | viability, T/C [18]: 86.5% | viability, T/C [19]: 97.5% | viability, T/C [20]: 93.3% | viability, T/C [21]: 109% | viability, T/C [22]: 99.1% | viability, T/C [23]: 110% | viability, T/C [24]: 84.9% | viability, T/C [25]: 98.6% | viability, T/C [26]: 98.3% | viability, T/C [27]: 102% | viability, T/C [28]: 89.5% | viability, T/C [29]: 95.8% | viability, T/C [30]: 80.2% | viability, T/C [31]: 94.4% | viability, T/C [32]: 86.7% | viability, T/C [33]: 98.7% | viability, T/C [34]: 91.1% | viability, T/C [35]: 95.9% | viability, T/C [36]: 83.6%

CC(Cn1ccc(-c2ccc(C#N)c(Cl)c2)n1)NC(=O)c1cc(C(C)O)[nH]n1 (stereo not given) + Cc1nc(NC(=O)N2CCCC2C(N)=O)sc1-c1ccnc(C(C)(C)C(F)(F)F)c1
IC50 (second compound 0.0316 µM): > 10 µM | IC50 (second compound 0.1 µM): > 10 µM | IC50 (second compound 0.316 µM): > 10 µM | IC50 (second compound 1 µM): > 10 µM | IC50 (second compound 3.16 µM): > 10 µM | IC50 (second compound 10 µM): > 10 µM | viability, T/C [1]: 105% | viability, T/C [2]: 101% | viability, T/C [3]: 114% | viability, T/C [4]: 97.5% | viability, T/C [5]: 102% | viability, T/C [6]: 103% | viability, T/C [7]: 94.3% | viability, T/C [8]: 89.8% | viability, T/C [9]: 98.1% | viability, T/C [10]: 95.7% | viability, T/C [11]: 101% | viability, T/C [12]: 97.4% | viability, T/C [13]: 98.6% | viability, T/C [14]: 104% | viability, T/C [15]: 104% | viability, T/C [16]: 99.7% | viability, T/C [17]: 108% | viability, T/C [18]: 95.5% | viability, T/C [19]: 111% | viability, T/C [20]: 102% | viability, T/C [21]: 95.4% | viability, T/C [22]: 102% | viability, T/C [23]: 100% | viability, T/C [24]: 98.5% | viability, T/C [25]: 101% | viability, T/C [26]: 99.5% | viability, T/C [27]: 96.7% | viability, T/C [28]: 103% | viability, T/C [29]: 96.1% | viability, T/C [30]: 108% | viability, T/C [31]: 105% | viability, T/C [32]: 100% | viability, T/C [33]: 90.8% | viability, T/C [34]: 99.3% | viability, T/C [35]: 95.9% | viability, T/C [36]: 84.1%

CCN1CCN(Cc2ccc(Nc3ncc(F)c(-c4cc(F)c5nc(C)n(C(C)C)c5c4)n3)nc2)CC1 + Cc1nc(NC(=O)N2CCCC2C(N)=O)sc1-c1ccnc(C(C)(C)C(F)(F)F)c1
IC50 (second compound 0.0316 µM): > 1 µM | IC50 (second compound 0.1 µM): > 1 µM | IC50 (second compound 0.316 µM): > 1 µM | IC50 (second compound 1 µM): > 1 µM | IC50 (second compound 3.16 µM): > 1 µM | IC50 (second compound 10 µM): > 1 µM | viability, T/C (second compound 0.0316 µM, first compound 0.00316 µM): 94% | viability, T/C (second compound 0.0316 µM, first compound 0.01 µM): 90.8% | viability, T/C [1]: 98.5% | viability, T/C [2]: 101% | viability, T/C [3]: 110% | viability, T/C [4]: 134% | viability, T/C (second compound 0.1 µM, first compound 0.00316 µM): 107% | viability, T/C (second compound 0.1 µM, first compound 0.01 µM): 120% | viability, T/C [7]: 96.9% | viability, T/C [8]: 105% | viability, T/C [9]: 114% | viability, T/C [10]: 113% | viability, T/C (second compound 0.316 µM, first compound 0.00316 µM): 113% | viability, T/C (second compound 0.316 µM, first compound 0.01 µM): 104% | viability, T/C [13]: 111% | viability, T/C [14]: 115% | viability, T/C [15]: 131% | viability, T/C [16]: 110% | viability, T/C (second compound 1 µM, first compound 0.00316 µM): 92.5% | viability, T/C (second compound 1 µM, first compound 0.01 µM): 99% | viability, T/C [19]: 101% | viability, T/C [20]: 108% | viability, T/C [21]: 120% | viability, T/C [22]: 83.9% | viability, T/C (second compound 3.16 µM, first compound 0.00316 µM): 96.7% | viability, T/C (second compound 3.16 µM, first compound 0.01 µM): 105% | viability, T/C [25]: 106% | viability, T/C [26]: 103% | viability, T/C [27]: 91.9% | viability, T/C [28]: 84.1% | viability, T/C (second compound 10 µM, first compound 0.00316 µM): 91.3% | viability, T/C (second compound 10 µM, first compound 0.01 µM): 82.7% | viability, T/C [31]: 92.3% | viability, T/C [32]: 74.6% | viability, T/C [33]: 68.9% | viability, T/C [34]: 52.1%

Cn1ncc(Cl)c1-c1cc(C(=O)NC(CN)Cc2cccc(F)c2)sc1Cl (stereo not given) + Cc1nc(NC(=O)N2CCCC2C(N)=O)sc1-c1ccnc(C(C)(C)C(F)(F)F)c1
IC50 (second compound 0.0316 µM): 6.95 µM | IC50 (second compound 0.1 µM): 6.73 µM | IC50 (second compound 0.316 µM): 6.48 µM | IC50 (second compound 1 µM): 9.17 µM | IC50 (second compound 3.16 µM): 5.85 µM | IC50 (second compound 10 µM): 4.01 µM | viability, T/C [1]: 96% | viability, T/C [2]: 93.5% | viability, T/C [3]: 102% | viability, T/C [4]: 91.5% | viability, T/C [5]: 82.5% | viability, T/C [6]: 35.2% | viability, T/C [7]: 102% | viability, T/C [8]: 95.8% | viability, T/C [9]: 92.3% | viability, T/C [10]: 89% | viability, T/C [11]: 76.3% | viability, T/C [12]: 36.4% | viability, T/C [13]: 99.4% | viability, T/C [14]: 96% | viability, T/C [15]: 98.8% | viability, T/C [16]: 96.8% | viability, T/C [17]: 67.6% | viability, T/C [18]: 39.4% | viability, T/C [19]: 109% | viability, T/C [20]: 92.9% | viability, T/C [21]: 106% | viability, T/C [22]: 98.4% | viability, T/C [23]: 73.7% | viability, T/C [24]: 48.1% | viability, T/C [25]: 91.8% | viability, T/C [26]: 95% | viability, T/C [27]: 94.1% | viability, T/C [28]: 87.7% | viability, T/C [29]: 70% | viability, T/C [30]: 32.6% | viability, T/C [31]: 89.9% | viability, T/C [32]: 90.9% | viability, T/C [33]: 86.3% | viability, T/C [34]: 70.5% | viability, T/C [35]: 59.6% | viability, T/C [36]: 22.8%

Cn1nccc1Nc1nccc(-c2ccn(C(CO)c3ccc(Cl)c(F)c3)c(=O)c2)n1 (stereo not given) + Cc1nc(NC(=O)N2CCCC2C(N)=O)sc1-c1ccnc(C(C)(C)C(F)(F)F)c1
IC50 (second compound 0.0316 µM): 3.46 µM | IC50 (second compound 0.1 µM): 2.98 µM | IC50 (second compound 0.316 µM): 2.27 µM | IC50 (second compound 1 µM): 1.58 µM | IC50 (second compound 3.16 µM): 0.739 µM | IC50 (second compound 10 µM): 0.552 µM | viability, T/C [1]: 106% | viability, T/C [2]: 81.5% | viability, T/C [3]: 83.8% | viability, T/C [4]: 68.9% | viability, T/C [5]: 47.8% | viability, T/C [6]: 37.1% | viability, T/C [7]: 97.2% | viability, T/C [8]: 97.9% | viability, T/C [9]: 86.2% | viability, T/C [10]: 58.3% | viability, T/C [11]: 56.6% | viability, T/C [12]: 33.1% | viability, T/C [13]: 96.7% | viability, T/C [14]: 86% | viability, T/C [15]: 87.6% | viability, T/C [16]: 72.1% | viability, T/C [17]: 40.7% | viability, T/C [18]: 29.1% | viability, T/C [19]: 92.4% | viability, T/C [20]: 97.8% | viability, T/C [21]: 67.8% | viability, T/C [22]: 57.7% | viability, T/C [23]: 42.1% | viability, T/C [24]: 26.8% | viability, T/C [25]: 96% | viability, T/C [26]: 89.3% | viability, T/C [27]: 68% | viability, T/C [28]: 39.3% | viability, T/C [29]: 32.4% | viability, T/C [30]: 13.9% | viability, T/C [31]: 94.2% | viability, T/C [32]: 83.9% | viability, T/C [33]: 70.2% | viability, T/C [34]: 29.7% | viability, T/C [35]: 5.53% | viability, T/C [36]: 1.47%
